This is an account of results in PMC10583863 (European journal of medicinal chemistry, 2022).

In brackets after ≈: the same amount, converted by molar mass. Like-named read-outs stand apart in the source and are kept apart here. Bounds are passed on as bounds.

The subject of data set [1] is M. tuberculosis H37Rv. Briefly: microbe, parasite or virus in culture. It counts as cell-based, Mycobacterium tuberculosis. The note with it: for MIC90: Mycobacterium tuberculosis, H37RV, read-out: MIC90 MtbH37Rv.
The nature of data set [2]: Metabolic stability in human liver microsomes. It counts as in vitro ADME. The note with it: 60 min incubation. In general terms: Liver microsomes are a subcellular fraction often used to study metabolism.
The subject of another data set is M. abscessus Bamboo. Nature of the data set: MIC by broth microdilution, NTM. As to conditions: especially against M. abscessus Bamboo; weak.
For data set [3] the following is noted: in words; cited from earlier work.
For data set [4] the following is noted: introduction, earlier work; cited from earlier work.
The subject of data set [5] is M. tuberculosis H37Rv. The note with it: activity already reported, cited from earlier work.
In another data set the test system is 81.10 (ethA, Δ1109–37). It counts as cell-based. The note with it: strain 81.10 (ethA, Δ1109–37).
In another data set the test system is Ty1 (Rv3405c, c190t). Briefly: MIC by micro-broth dilution method, Mtb panel. As to conditions: Mycobacterium tuberculosis. It counts as cell-based. Background: Dilution methods test growth across graded concentrations, often in twofold steps.
Another data set concerns H37Rv. Briefly: MIC by micro-broth dilution method, Mtb panel. It counts as cell-based, Mycobacterium tuberculosis. The note with it: strain H37Rv.
Data set [6] concerns M. marinum infected zebrafish larvae. Nature of the data set: Zebrafish larvae model of M. marinum infection. It counts as in vivo. As to conditions: caudal vein microinjection, ca. 6–8 ng, by tendency.

On to `COc1ccc2sc(NC(=O)c3cc(C(=O)Nc4cccc(C)c4)no3)nc2c1` [Compound 60c], for which, in the data set on M. tuberculosis H37Rv [1], the MIC90 is more than 40 µg/mL.
Turning to `O=C(Nc1ccccn1)c1cc(-c2csc(Nc3cc(Cl)c(Cl)c(Cl)c3)n2)on1` [Compound 43j], in data set [2], the “metabolic stability in HLM in words” value is “did not show any significant biotransformation”.
As for `O=C(Nc1ccccn1)c1cc(-c2csc(Nc3ccccc3)n2)on1` [Compound 43g], the “inhibitory activity in words” value with M. abscessus Bamboo is reported as “concentration-dependent inhibitory activity”.
As for `Cc1ccc(Nc2nc(-c3cc(C(=O)Nc4ccncc4)no3)cs2)cc1` [Compound 23a], the MIC90 in the data set with M. tuberculosis H37Rv [1] came out at 2.6 µM.
Turning to `Nc1nc(-c2cc(C(=O)Nc3ccccc3)no2)cs1` [Compound 42i], the “metabolic stability in HLM in words” value in data set [2] is reported as “did not show any significant biotransformation”.
Turning to `Cc1ccc(Nc2nc(-c3cc(C(=O)Nc4cccc(O)c4)no3)cs2)cc1` [Compound 21a], the MIC90 in the data set with M. tuberculosis H37Rv [1] was determined as 1.3 µM.
On to `Cc1ccc(Nc2nc(-c3cc(C(=O)Nc4ccccc4)no3)cs2)cc1O` [Compound 42e], for which, in the data set with M. tuberculosis H37Rv [1], the “antitubercular whole cell activity in words” value is reported as “retained a certain activity” and the MIC90 stood at 6.3 µM.
Regarding `Cc1ccc2nc(NC(=O)c3cc(C(=O)Nc4ccc(O)cc4)no3)sc2c1` [Compound 61b], in the data set on M. tuberculosis H37Rv [1], the MIC90 is more than 40 µg/mL.
On to `O=C(Nc1ccccn1)c1cc(-c2csc(Nc3ccc(CO)cc3)n2)on1` [Compound 43n, 5-(2-((4-(hydroxymethyl)phenyl)amino)thiazol-4-yl)-N-(pyridin-2-yl)isoxazole-3-carboxamide], for which the “antitubercular whole cell activity in words” value in the data set on M. tuberculosis H37Rv [1] is “no whole cell activity”.
For `Cc1ccc(Nc2nc(-c3cc(C(=O)Nc4cccnc4)no3)cs2)cc1` [Compound 24a], the MIC90 in the data set with M. tuberculosis H37Rv [1] came to 26 µM.
Consider `Cc1ccc(Nc2nc(-c3cc(C(=O)Nc4cccc(C)c4)no3)cs2)cc1` [Compound 15a], for which the MIC90 with M. tuberculosis H37Rv [1] came to 1.3 µM.
Still for that read-out and setting: then `Cc1ccc(Nc2nc(-c3cc(C(=O)Nc4ccsc4)no3)cs2)cc1` [Compound 32a], with 2.6 µM; and `O=C(Nc1ccccc1)c1cc(-c2csc(Nc3ccc(Cl)cc3)n2)on1` [Compound 42l], with 3.2 µM.
In the case of `Cc1ccc(Nc2nc(-c3cc(C(=O)Nc4ccc(O)cc4)no3)cs2)cc1` [Compound 20a], the MIC90 in the data set on M. tuberculosis H37Rv [1] is 1.3 µM.
The same measure, in the same setting: then `O=C(Nc1ccc(O)cc1)c1cc(C(=O)Nc2nc3ccccc3s2)on1` [Compound 61a], with more than 40 µg/mL.
In the case of `Nc1nc(-c2cc(C(=O)Nc3ccccn3)no2)cs1` [Compound 43i], the “metabolic stability in HLM in words” value in data set [2] is recorded as “did not show any significant biotransformation”.
Consider `Cc1ccc(Nc2nc(-c3cc(C(=O)Nc4ccccn4)no3)cs2)cc1` [Compound 4], for which the reactivity to glutathione entry in data set [3] is reported as “ruling out the possibility of indiscriminate reactivity toward biological nucleophiles”. Moreover, the “half-life in human liver microsomes (HLM)” value in data set [4] was 35 ± 0.8 min. Also, the MIC90 in the data set on M. tuberculosis H37Rv [1] stood at 1.3 µM.
Consider `Cc1ccc(Nc2nc(-c3cc(C(=O)Nc4ccccc4C)no3)cs2)cc1` [Compound 16a], for which the MIC90 in the data set on M. tuberculosis H37Rv [1] was found to be 2.5 µM.
Consider `Cc1ccc(Nc2nc(-c3cc(C(=O)Nc4ccccn4)no3)co2)cc1` [Compound 48], for which, in the data set with M. tuberculosis H37Rv [5] (value in brackets), the “MIC90 MtbH37Rv” value was 6.9 µM.
As for `Cc1ccc(Nc2nc(-c3cc(C(=O)Nc4ccccc4F)no3)cs2)cc1` [Compound 11a], the MIC90 with M. tuberculosis H37Rv [1] was 2.5 µM.
Consider `O=C(Nc1ccccc1)c1cc(-c2csc(Nc3ccc(CO)cc3)n2)on1` [Compound 42n, 5-(2-((4-(hydroxymethyl)phenyl)amino)thiazol-4-yl)-N-phenylisoxazole-3-carboxamide], for which the “antitubercular whole cell activity in words” value in the data set with M. tuberculosis H37Rv [1] is reported as “no whole cell activity”.
As to `O=C(Nc1ccccc1)c1cc(-c2csc(Nc3cc(Cl)cc(Cl)c3)n2)on1` [Compound 35b], the “MIC90 MtbH37Rv” value in the data set with M. tuberculosis H37Rv [5] was more than 20 µg/mL.
In the case of `Cc1ccc(NC(=O)c2cc(-c3csc(Nc4ccc(C)cc4)n3)on2)cc1` [Compound 14a], the MIC90 with M. tuberculosis H37Rv [1] stood at 2.6 µM.
Turning to `Cc1ccc(Nc2nc(-c3cc(C(=O)Nc4ccccc4)no3)co2)cc1` [Compound 47], in the data set with M. tuberculosis H37Rv [1], the MIC90 came to 2.8 µM.
For the compound `NNC(=O)c1ccncc1` [INH, Isoniazide], the MIC90 with 81.10 (ethA, Δ1109–37) amounted to 0.025 µg/mL (≈ 0.182 µM); against Ty1 (Rv3405c, c190t) it was 0.025 µg/mL (≈ 0.182 µM); against H37Rv it was 0.025 µg/mL (≈ 0.182 µM). Moreover, the “MIC90 MtbH37Rv” value against M. tuberculosis H37Rv [1] (REMA method, M. tuberculosis H37Rv) was 0.025 µg/mL (≈ 0.182 µM).
As to `Cc1ccc(Nc2nc(-c3cc(C(=O)Nc4ccccc4O)no3)cs2)cc1` [Compound 22a], in the data set on M. tuberculosis H37Rv [1], the MIC90 turned out to be 1.3 µM.
For `Cc1ccc(Nc2nc(-c3cc(C(=O)Nc4ccccc4)no3)cs2)cc1` [Compound 3], the reactivity to glutathione result in [3] is “ruling out the possibility of indiscriminate reactivity toward biological nucleophiles”. In addition, in the data set on M. tuberculosis H37Rv [1], the MIC90 was determined as 2.7 µM. Moreover, the granuloma formation result in data set [6] is recorded as “granuloma formation was slightly less pronounced than in the untreated control group”.
For the compound `Cc1ccc(Nc2nc(-c3cc(C(=O)Nc4ccc(F)cc4)no3)cs2)cc1` [Compound 9a], the MIC90 in the data set on M. tuberculosis H37Rv [1] stood at 2.5 µM.
As for `O=C(Nc1ccccc1)c1cc(C(=O)Nc2nc3ccccc3s2)on1` [Compound 58a], the MIC90 in the data set with M. tuberculosis H37Rv [1] is more than 40 µg/mL.
Regarding `Cc1cccc(NC(=O)c2cc(C(=O)Nc3nc4ccc(C)cc4s3)on2)c1` [Compound 60b], in the data set with M. tuberculosis H37Rv [1], the MIC90 is more than 40 µg/mL.
On to `O=C(Nc1cccc(O)c1)c1cc(C(=O)Nc2nc3ccccc3s2)on1` [Compound 63a], for which the MIC90 in the data set with M. tuberculosis H37Rv [1] was more than 40 µg/mL.
As to `CCOC(=O)c1cc(-c2cccc(Nc3ccc(C)cc3)n2)on1` [Compound 53, Ethyl 5-(6-(p-tolylamino)pyridin-2-yl)isoxazole-3-carboxylate], the MIC90 with M. tuberculosis H37Rv [1] came out at 3.8 µM.
Consider `Cc1ccc(Nc2nc(-c3cc(C(=O)Nc4ccccn4)no3)cs2)cc1O` [Compound 43e], for which, in the data set with M. tuberculosis H37Rv [1], the “antitubercular whole cell activity in words” value is “retained a certain activity” and the MIC90 is 12.6 µM.
`O=C(Nc1ccccn1)c1cc(C(=O)Nc2nc3ccccc3s2)on1` [Compound 59a]: in the data set with M. tuberculosis H37Rv [1], the MIC90 is more than 40 µg/mL.
Still for that read-out and setting: then `O=C(Nc1cccc(F)c1)c1cc(C(=O)Nc2nc3ccccc3s2)on1` [Compound 62a], with more than 40 µg/mL.
Take `Cc1cc(C)cc(Nc2nc(-c3cc(C(=O)Nc4ccccc4)no3)cs2)c1` [Compound 35d]: the MIC90 in the data set with M. tuberculosis H37Rv [1] came to 2.5 µM.
Take `Cc1ccc(Nc2nc(-c3cc(C(=O)Nc4cc(C)ccn4)no3)cs2)cc1` [Compound 27a]: the MIC90 with M. tuberculosis H37Rv [1] came out at 2.6 µM.
Still for that read-out and setting: then `Cc1ccc(Nc2nc(-c3cc(C(=O)Nc4ccc(O)cc4)no3)cs2)cc1O` [Compound 20e], with 12.2 µM; and `Cc1cccc(NC(=O)c2cc(C(=O)Nc3nc4ccccc4s3)on2)c1` [Compound 60a], with more than 40 µg/mL; and `O=C(Nc1ccccc1)c1cc(-c2csc(Nc3cccc(O)c3)n2)on1` [Compound 42m], with 13.2 µM.
With `O=C(Nc1ccccc1)c1cc(-c2csc(Nc3ccccc3)n2)on1` [Compound 42g], the “inhibitory activity in words” value in the data set with M. abscessus Bamboo is “concentration-dependent inhibitory activity”. Besides, the MIC90 with M. tuberculosis H37Rv [1] amounted to 3.4 µM.
As for `O=C(Nc1ccccc1)c1cc(-c2csc(Nc3cc(Cl)c(Cl)c(Cl)c3)n2)on1` [Compound 42j], the “metabolic stability in HLM in words” value in data set [2] is “did not show any significant biotransformation”.
Regarding `Cc1ccc2nc(NC(=O)c3cc(C(=O)Nc4ccccc4)no3)sc2c1` [Compound 59b], in the data set with M. tuberculosis H37Rv [1], the MIC90 is more than 40 µg/mL.
Same read-out and setting: with `Cc1ccc(Nc2nc(-c3cc(C(=O)Nc4cccc(F)c4)no3)cs2)cc1` [Compound 10a] the figure was 6.3 µM.
For `Cc1ccc2nc(NC(=O)c3cc(C(=O)Nc4ccccn4)no3)sc2c1` [Compound 58b], the MIC90 with M. tuberculosis H37Rv [1] is more than 40 µg/mL.
Take `O=C(Nc1ccccn1)c1cc(-c2csc(Nc3cc(Cl)cc(Cl)c3)n2)on1` [Compound 36b]: the “MIC90 MtbH37Rv” value in the data set with M. tuberculosis H37Rv [5] is more than 20 µg/mL.
